# Measurements published in ChEMBL document CHEMBL1156264, “Synthesis and structure-activity relationships of dimeric peptide antagonists of the human immunoglobulin G-human neonatal Fc receptor (IgG-FcRn) interaction” (J Med Chem, 2010).
# Numbered stars: 1 amine (or outer) side, 2 acyl side, 3 side chain; on linkers, the order of the positions; unused ones are H or OH. Bridge positions count the residues as written; N and C are the ends. Square brackets hold non-standard residues; d marks the D form. Peptide text beside a SMILES is read from it. I, II: the chains in the order shown. X3 = CN(CCCNC(=O)CCNC(=O)CCSCC(=O)[*:1])CCCNC(=O)CCNC(=O)CCSCC(=O)[*:2]; Phe(4-guanidino) = N=C(N)Nc1ccc(C[C@H](N)C(=O)O)cc1; X1 = O=C(C(=O)[*:2])[C@H](Cc1ccc(O)cc1)N[*:1]; NHCH2CH2N(Me)CH2CO = CN(CCN[*:1])CC(=O)[*:2]; NMeL = CN[C@@H](CC(C)C)C(=O)O; Pen = CC(C)(S)[C@H](N)C(=O)O; Suc = O=C(CCC(=O)[*:2])[*:1]; Sar = CNCC(=O)O
# Target: T1, IgG receptor FcRn large subunit p51 (Homo sapiens, UniProt P55899)
# T1 sequence (P55899 whole entry): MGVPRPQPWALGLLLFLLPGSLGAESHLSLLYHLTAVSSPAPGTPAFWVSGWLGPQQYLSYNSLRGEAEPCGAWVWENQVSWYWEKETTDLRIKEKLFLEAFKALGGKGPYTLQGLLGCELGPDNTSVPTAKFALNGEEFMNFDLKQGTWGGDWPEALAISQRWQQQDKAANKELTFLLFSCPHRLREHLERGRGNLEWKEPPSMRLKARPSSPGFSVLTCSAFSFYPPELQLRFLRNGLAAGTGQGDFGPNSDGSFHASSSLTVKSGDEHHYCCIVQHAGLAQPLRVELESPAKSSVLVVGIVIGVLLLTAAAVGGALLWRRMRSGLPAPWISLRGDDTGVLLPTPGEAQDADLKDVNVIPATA
# Test: Ratio of RF-Pen-TGHFG-Sar-NMeLeu-YPC IC50 to compound IC50 for soluble human FcRn
row,Ratio IC50,Structure (SMILES)
1,110,CC(C)C[C@H]1C(=O)N[C@@H](Cc2ccc(O)cc2)C(=O)C(=O)N2CCC[C@H]2C(=O)N[C@H](C(N)=O)CSSC(C)(C)[C@H](NC(=O)[C@H](Cc2ccccc2)NC(=O)[C@H](CCCNC(=N)N)NC(=O)CN(C)CC(=O)N[C@@H](CCCNC(=N)N)C(=O)N[C@@H](Cc2ccccc2)C(=O)N[C@@H]2C(=O)N[C@@H]([C@@H](C)O)C(=O)NCC(=O)N[C@@H](Cc3c[nH]cn3)C(=O)N[C@@H](Cc3ccccc3)C(=O)NCC(=O)N(C)CC(=O)N(C)[C@@H](CC(C)C)C(=O)N[C@@H](Cc3ccc(O)cc3)C(=O)C(=O)N3CCC[C@H]3C(=O)N[C@H](C(N)=O)CSSC2(C)C)C(=O)N[C@@H]([C@@H](C)O)C(=O)NCC(=O)N[C@@H](Cc2c[nH]cn2)C(=O)N[C@@H](Cc2ccccc2)C(=O)NCC(=O)N(C)CC(=O)N1C

# Target: T1, IgG receptor FcRn large subunit p51
# Test: Inhibition of IgG binding to soluble human FcRn after 2 hrs by competition ELISA
row,IC50 [nM],Structure (SMILES)
1,4.7,CC(C)C[C@H]1C(=O)N[C@@H](Cc2ccc(O)cc2)C(=O)C(=O)N2CCC[C@H]2C(=O)N[C@H](C(N)=O)CSSC(C)(C)[C@H](NC(=O)[C@H](Cc2ccccc2)NC(=O)[C@H](CCCNC(=N)N)NC(=O)CN(C)CC(=O)N[C@@H](CCCNC(=N)N)C(=O)N[C@@H](Cc2ccccc2)C(=O)N[C@@H]2C(=O)N[C@@H]([C@@H](C)O)C(=O)NCC(=O)N[C@@H](Cc3cnc[nH]3)C(=O)N[C@@H](Cc3ccccc3)C(=O)NCC(=O)N(C)CC(=O)N(C)[C@@H](CC(C)C)C(=O)N[C@@H](Cc3ccc(O)cc3)C(=O)C(=O)N3CCC[C@H]3C(=O)N[C@H](C(N)=O)CSSC2(C)C)C(=O)N[C@@H]([C@@H](C)O)C(=O)NCC(=O)N[C@@H](Cc2cnc[nH]2)C(=O)N[C@@H](Cc2ccccc2)C(=O)NCC(=O)N(C)CC(=O)N1C
2,3.9,"CC(C)C[C@H]1C(=O)N[C@@H](Cc2ccc(O)cc2)C(=O)C(=O)N2CCC[C@H]2C(=O)N[C@H](C(N)=O)CSSC(C)(C)[C@H](NC(=O)[C@H](Cc2ccccc2)NC(=O)[C@H](CCCNC(=N)N)NC(=O)CN(C)CCNC(=O)CNC(=O)[C@@H]2CSSC(C)(C)[C@H](NC(=O)[C@H](Cc3ccccc3)NC(=O)[C@@H](N)CCCNC(=N)N)C(=O)N[C@@H]([C@@H](C)O)C(=O)NCC(=O)N[C@@H](Cc3cnc[nH]3)C(=O)N[C@@H](Cc3ccccc3)C(=O)NCC(=O)N(C)CC(=O)N(C)[C@@H](CC(C)C)C(=O)N[C@@H](Cc3ccc(O)cc3)C(=O)C(=O)N3CCC[C@H]3C(=O)N2)C(=O)N[C@@H]([C@@H](C)O)C(=O)NCC(=O)N[C@@H](Cc2cnc[nH]2)C(=O)N[C@@H](Cc2ccccc2)C(=O)NCC(=O)N(C)CC(=O)N1C (H-RF[Pen]TGHFG[Sar][NMeL][X1]PCG[NHCH2CH2N(Me)CH2CO]RF[Pen]TGHFG[Sar][NMeL][X1]PC-NH2; disulfide 3-13, 18-28)"
3,3.9,CC(C)C[C@H]1C(=O)N[C@@H](Cc2ccc(O)cc2)C(=O)C(=O)N2CCC[C@H]2C(=O)N[C@H](C(N)=O)CSSC(C)(C)[C@H](NC(=O)[C@H](Cc2ccccc2)NC(=O)[C@H](CCCNC(=N)N)NC(=O)CCC(=O)NCCN(C)CC(=O)N[C@@H](CCCNC(=N)N)C(=O)N[C@@H](Cc2ccccc2)C(=O)N[C@@H]2C(=O)N[C@@H]([C@@H](C)O)C(=O)NCC(=O)N[C@@H](Cc3cnc[nH]3)C(=O)N[C@@H](Cc3ccccc3)C(=O)N[C@H]3CCCN(CC(=O)N(C)[C@@H](CC(C)C)C(=O)N[C@@H](Cc4ccc(O)cc4)C(=O)C(=O)N4CCC[C@H]4C(=O)N[C@H](C(N)=O)CSSC2(C)C)C3=O)C(=O)N[C@@H]([C@@H](C)O)C(=O)NCC(=O)N[C@@H](Cc2cnc[nH]2)C(=O)N[C@@H](Cc2ccccc2)C(=O)N[C@H]2CCCN(CC(=O)N1C)C2=O
4,4.8,CC(C)C[C@H]1C(=O)N[C@@H](Cc2ccc(O)cc2)C(=O)C(=O)N2CCC[C@H]2C(=O)N[C@H](C(N)=O)CSSC(C)(C)[C@H](NC(=O)[C@H](Cc2ccccc2)NC(=O)[C@H](CCCNC(=N)N)NC(=O)CCOCCOCCOCCOCCOCCC(=O)N[C@@H](CCCNC(=N)N)C(=O)N[C@@H](Cc2ccccc2)C(=O)N[C@@H]2C(=O)N[C@@H]([C@@H](C)O)C(=O)NCC(=O)N[C@@H](Cc3cnc[nH]3)C(=O)N[C@@H](Cc3ccccc3)C(=O)NCC(=O)N(C)CC(=O)N(C)[C@@H](CC(C)C)C(=O)N[C@@H](Cc3ccc(O)cc3)C(=O)C(=O)N3CCC[C@H]3C(=O)N[C@H](C(N)=O)CSSC2(C)C)C(=O)N[C@@H]([C@@H](C)O)C(=O)NCC(=O)N[C@@H](Cc2cnc[nH]2)C(=O)N[C@@H](Cc2ccccc2)C(=O)NCC(=O)N(C)CC(=O)N1C
5,20,"CC(C)C[C@H]1C(=O)N[C@@H](Cc2ccc(O)cc2)C(=O)C(=O)N2CCC[C@H]2C(=O)N[C@H](C(N)=O)CSSC(C)(C)[C@H](NC(=O)[C@H](Cc2ccccc2)NC(=O)[C@H](CCCNC(=N)N)NC(=O)CCC(=O)N[C@@H](CCCNC(=N)N)C(=O)N[C@@H](Cc2ccccc2)C(=O)N[C@@H]2C(=O)N[C@@H]([C@@H](C)O)C(=O)NCC(=O)N[C@@H](Cc3ccc(N=C(N)N)cc3)C(=O)NCC(=O)N(C)CC(=O)N(C)[C@@H](CC(C)C)C(=O)N[C@@H](Cc3ccc(O)cc3)C(=O)C(=O)N3CCC[C@H]3C(=O)N[C@H](C(N)=O)CSSC2(C)C)C(=O)N[C@@H]([C@@H](C)O)C(=O)NCC(=O)N[C@@H](Cc2ccc(N=C(N)N)cc2)C(=O)NCC(=O)N(C)CC(=O)N1C (I: RF[Pen]TG[Phe(4-guanidino)]G[Sar][NMeL][X1]PC-NH2 / II: RF[Pen]TG[Phe(4-guanidino)]G[Sar][NMeL][X1]PC-NH2; disulfide I:3-I:12, II:3-II:12; linker I:N-II:N via Suc)"
6,5,CC(C)C[C@H]1C(=O)N[C@@H](Cc2ccc(O)cc2)C(=O)C(=O)N2CCC[C@H]2C(=O)N[C@H](C(N)=O)CSSC(C)(C)[C@H](NC(=O)[C@H](Cc2ccccc2)NC(=O)[C@H](CCCNC(=N)N)NC(=O)CC(C)(C)CC(=O)N[C@@H](CCCNC(=N)N)C(=O)N[C@@H](Cc2ccccc2)C(=O)N[C@@H]2C(=O)N[C@@H]([C@@H](C)O)C(=O)NCC(=O)N[C@@H](Cc3cnc[nH]3)C(=O)N[C@@H](Cc3ccccc3)C(=O)NCC(=O)N(C)CC(=O)N(C)[C@@H](CC(C)C)C(=O)N[C@@H](Cc3ccc(O)cc3)C(=O)C(=O)N3CCC[C@H]3C(=O)N[C@H](C(N)=O)CSSC2(C)C)C(=O)N[C@@H]([C@@H](C)O)C(=O)NCC(=O)N[C@@H](Cc2cnc[nH]2)C(=O)N[C@@H](Cc2ccccc2)C(=O)NCC(=O)N(C)CC(=O)N1C
7,2.4,CC(C)C[C@H]1C(=O)N[C@@H](Cc2ccc(O)cc2)C(=O)C(=O)N2CCC[C@H]2C(=O)N[C@H](C(N)=O)CSSC(C)(C)[C@H](NC(=O)[C@H](Cc2ccccc2)NC(=O)[C@H](CCCNC(=N)N)NC(=O)CCNC(=O)CCNC(=O)CCNC(=O)CN(C)CCNC(=O)CCC(=O)N[C@@H](CCCNC(=N)N)C(=O)N[C@@H](Cc2ccccc2)C(=O)N[C@@H]2C(=O)N[C@@H]([C@@H](C)O)C(=O)NCC(=O)N[C@@H](Cc3cnc[nH]3)C(=O)N[C@@H](Cc3ccccc3)C(=O)NCC(=O)N(C)CC(=O)N(C)[C@@H](CC(C)C)C(=O)N[C@@H](Cc3ccc(O)cc3)C(=O)C(=O)N3CCC[C@H]3C(=O)N[C@H](C(N)=O)CSSC2(C)C)C(=O)N[C@@H]([C@@H](C)O)C(=O)NCC(=O)N[C@@H](Cc2cnc[nH]2)C(=O)N[C@@H](Cc2ccccc2)C(=O)NCC(=O)N(C)CC(=O)N1C
8,2400,"CC(C)C[C@H]1C(=O)N[C@@H](Cc2ccc(O)cc2)C(=O)C(=O)N2CCC[C@H]2C(=O)N[C@H](C(=O)N[C@@H](CC(N)=O)C(=O)NCC(=O)N2CCC[C@H]2C(N)=O)CCCCNC(=O)C[C@H](NC(=O)[C@H](Cc2ccccc2)NC(=O)CSCCC(=O)NCCC(=O)NCCCN(C)CCCNC(=O)CCNC(=O)CCSCC(=O)N[C@@H](CCC(N)=O)C(=O)N[C@@H](CCCNC(=N)N)C(=O)N[C@@H](Cc2ccccc2)C(=O)N[C@H]2CC(=O)NCCCC[C@@H](C(=O)N[C@@H](CC(N)=O)C(=O)NCC(=O)N3CCC[C@H]3C(N)=O)NC(=O)[C@@H]3CCCN3C(=O)C(=O)[C@H](Cc3ccc(O)cc3)NC(=O)[C@H](CC(C)C)N(C)C(=O)CN(C)C(=O)CNC(=O)[C@H](Cc3ccccc3)NC(=O)[C@H](Cc3cnc[nH]3)NC(=O)CNC(=O)[C@H]([C@@H](C)O)NC2=O)C(=O)N[C@@H]([C@@H](C)O)C(=O)NCC(=O)N[C@@H](Cc2cnc[nH]2)C(=O)N[C@@H](Cc2ccccc2)C(=O)NCC(=O)N(C)CC(=O)N1C (I: QRFDTGHFG[Sar][NMeL][X1]PKNGP-NH2 / II: FDTGHFG[Sar][NMeL][X1]PKNGP-NH2; lactam I:4-I:14, II:2-II:12; linker I:N-II:N via X3)"
9,3000,CC(C)C[C@@H]1NC(=O)CNC(=O)CNC(=O)[C@H](Cc2ccccc2)NC(=O)[C@H](Cc2cnc[nH]2)NC(=O)CNC(=O)[C@H]([C@@H](C)O)NC(=O)[C@@H](NC(=O)[C@H](Cc2ccccc2)NC(=O)[C@H](CCCNC(=N)N)NC(=O)CCC(=O)NCCN(C)CC(=O)N[C@@H](CCCNC(=N)N)C(=O)N[C@@H](Cc2ccccc2)C(=O)N[C@H]2CSSC[C@@H](C(N)=O)NC(=O)[C@@H]3CCCN3C(=O)C(=O)[C@H](Cc3ccc(O)cc3)NC(=O)[C@H](CC(C)C)NC(=O)CNC(=O)CNC(=O)[C@H](Cc3ccccc3)NC(=O)[C@H](Cc3cnc[nH]3)NC(=O)CNC(=O)[C@H]([C@@H](C)O)NC2=O)CSSC[C@@H](C(N)=O)NC(=O)[C@@H]2CCCN2C(=O)C(=O)[C@H](Cc2ccc(O)cc2)NC1=O
10,2.4,CC(C)C[C@H]1C(=O)N[C@@H](Cc2ccc(O)cc2)C(=O)C(=O)N2CCC[C@H]2C(=O)N[C@H](C(N)=O)CSSC(C)(C)[C@H](NC(=O)[C@H](Cc2ccccc2)NC(=O)[C@H](CCCNC(=N)N)NC(=O)CCC(=O)N[C@@H](CCCNC(=N)N)C(=O)N[C@@H](Cc2ccccc2)C(=O)N[C@@H]2C(=O)N[C@@H]([C@@H](C)O)C(=O)NCC(=O)N[C@@H](Cc3cnc[nH]3)C(=O)N[C@@H](Cc3ccccc3)C(=O)NCC(=O)N(C)CC(=O)N(C)[C@@H](CC(C)C)C(=O)N[C@@H](Cc3ccc(O)cc3)C(=O)C(=O)N3CCC[C@H]3C(=O)N[C@H](C(N)=O)CSSC2(C)C)C(=O)N[C@@H]([C@@H](C)O)C(=O)NCC(=O)N[C@@H](Cc2cnc[nH]2)C(=O)N[C@@H](Cc2ccccc2)C(=O)NCC(=O)N(C)CC(=O)N1C
